{
  "source": "ChEMBL document CHEMBL4229343",
  "about": "“Perfluoroarene-based peptide macrocycles that inhibit the Nrf2/Keap1 interaction” (Bioorg Med Chem Lett, 2018)",
  "note": "pKi: −log10 of the molar value. *1 amine or outer side, *2 acyl side, *3 side chain or, on linkers, in order; H or OH if unused. Where a SMILES comes first, the peptide text is derived from it. Bridges are numbered along the chain shown (N, C = ends). C6F4(1,4-diyl) = Fc1c(F)c([*:2])c(F)c(F)c1[*:1]",
  "data": [
    {"tested_on": "THP-1", "assay": "Antiproliferative activity against human THP1 cells", "assay_type": "cell-based", "values": [
      {"smiles": "CC(=O)N[C@H]1CSc2c(F)c(F)c(c(F)c2F)SC[C@@H](C(N)=O)NC(=O)[C@H](CCC(=O)O)NC(=O)CNC(=O)[C@H]([C@@H](C)O)NC(=O)[C@H](CCC(=O)O)NC(=O)[C@@H]2CCCN2C(=O)[C@H](CC(=O)O)NC1=O", "Activity": "Non-Toxic"},
      {"smiles": "CC(=O)N[C@H]1CSSC[C@@H](C(N)=O)NC(=O)[C@H](CCC(=O)O)NC(=O)CNC(=O)[C@H]([C@@H](C)O)NC(=O)[C@H](CCC(=O)O)NC(=O)[C@H](CCC(=O)O)NC(=O)[C@H](CC(=O)O)NC1=O", "note": "(Ac-CDEETGEC-NH2; disulfide 1-8)", "Activity": "Non-Toxic"},
      {"smiles": "CC(=O)N[C@H]1CSSC[C@@H](C(=O)O)NC(=O)[C@H](CCC(=O)O)NC(=O)CNC(=O)[C@H]([C@@H](C)O)NC(=O)[C@H](CCC(=O)O)NC(=O)[C@H](CCC(=O)O)NC(=O)[C@H](CC(=O)O)NC1=O", "note": "(Ac-CDEETGEC-OH; disulfide 1-8)", "Activity": "Non-Toxic"},
      {"smiles": "CC(=O)N[C@H]1CSSC[C@@H](C(N)=O)NC(=O)CNC(=O)[C@H]([C@@H](C)O)NC(=O)[C@H](CCC(=O)O)NC(=O)[C@H](CCC(=O)O)NC1=O", "note": "(Ac-CEETGC-NH2; disulfide 1-6)", "Activity": "Non-Toxic"},
      {"smiles": "CC(=O)N[C@H]1CSSC[C@@H](C(N)=O)NC(=O)[C@H](Cc2ccccc2)NC(=O)[C@H](CCC(=O)O)NC(=O)CNC(=O)[C@H]([C@@H](C)O)NC(=O)[C@H](CCC(=O)O)NC(=O)[C@H](CCC(=O)O)NC(=O)[C@H](CC(=O)O)NC(=O)[C@H](CC(C)C)NC1=O", "note": "(Ac-CLDEETGEFC-NH2; disulfide 1-10)", "Activity": "Non-Toxic"},
      {"smiles": "CC(=O)N[C@H]1CSc2c(F)c(F)c(c(F)c2F)SC[C@@H](C(N)=O)NC(=O)[C@H](Cc2ccccc2)NC(=O)[C@H](CCC(=O)O)NC(=O)CNC(=O)[C@H]([C@@H](C)O)NC(=O)[C@H](CCC(=O)O)NC(=O)[C@@H]2CCCN2C(=O)[C@H](CC(=O)O)NC(=O)[C@H](CC(C)C)NC1=O", "note": "(Ac-CLDPETGEFC-NH2; linker 1-10 via C6F4(1,4-diyl))", "Activity": "Non-Toxic"},
      {"smiles": "C[C@@H](O)[C@@H]1NC(=O)[C@H](CCC(=O)O)NC(=O)[C@H](CCC(=O)O)NC(=O)[C@H](CC(=O)O)NC(=O)[C@@H](N)CSSC[C@@H](C(N)=O)NC(=O)[C@H](CCC(=O)O)NC(=O)CNC1=O", "note": "(H-CDEETGEC-NH2; disulfide 1-8)", "Activity": "Non-Toxic"}
    ]},
    {"target": "Kelch-like ECH-associated protein 1 (Homo sapiens, UniProt Q14145)", "sequence (Q14145 whole entry, the tested form may be a part)": "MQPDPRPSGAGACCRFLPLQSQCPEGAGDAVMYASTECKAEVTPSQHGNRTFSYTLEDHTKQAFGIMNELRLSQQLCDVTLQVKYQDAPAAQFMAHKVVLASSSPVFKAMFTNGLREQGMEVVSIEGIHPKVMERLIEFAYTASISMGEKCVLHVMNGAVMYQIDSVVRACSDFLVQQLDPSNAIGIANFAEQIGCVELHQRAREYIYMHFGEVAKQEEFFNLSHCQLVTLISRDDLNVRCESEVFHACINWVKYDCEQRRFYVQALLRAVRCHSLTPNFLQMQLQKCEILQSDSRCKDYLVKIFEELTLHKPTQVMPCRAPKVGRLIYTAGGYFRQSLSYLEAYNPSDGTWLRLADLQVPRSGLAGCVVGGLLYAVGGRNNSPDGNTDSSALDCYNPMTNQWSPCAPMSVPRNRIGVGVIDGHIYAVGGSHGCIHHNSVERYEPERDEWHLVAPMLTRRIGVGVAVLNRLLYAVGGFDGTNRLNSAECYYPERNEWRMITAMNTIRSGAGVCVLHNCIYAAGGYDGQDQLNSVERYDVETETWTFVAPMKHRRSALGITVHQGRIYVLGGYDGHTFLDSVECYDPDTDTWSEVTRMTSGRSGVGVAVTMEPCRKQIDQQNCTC", "assay": "Displacement of F-14 from Keap1 Kelch domain (unknown origin) expressed in Escherichia coli BL21 (DE3) after 15 mins by fluorescence polarization assay", "values": [
      {"smiles": "CC(=O)N[C@H]1CSSC[C@@H](C(N)=O)NC(=O)CNC(=O)[C@H]([C@@H](C)O)NC(=O)[C@H](CCC(=O)O)NC(=O)[C@H](CCC(=O)O)NC1=O", "note": "(Ac-CEETGC-NH2; disulfide 1-6)", "pKi": 3.82}
    ]}
  ]
}
